Measured values as given in ChEMBL document CHEMBL3638448, “8-[3-amino-piperidin-1-yl]-xanthines, their preparation and their use as pharmaceutical compositions” (2014).
pIC50: −log10 of the molar value.

Target: Dipeptidyl peptidase 4 (Homo sapiens, UniProt P27487)
Experiment: Biological Assay: 50 μl of substrate solution (AFC; AFC is amido-4-trifluoromethylcoumarin), final concentration 100 μM, was placed in black microtitre plates. 20 μl of assay buffer (final concentrations 50 mM Tris HCl pH 7.8, 50 mM NaCl, 1% DMSO) was pipetted therein. The reaction was started by the addition of 30 μl of solubilized Caco-2 protein (final concentration 0.14 μg of protein per well). The test substances under investigation were typically added prediluted to 20 μl, while the volume of assay buffer was then reduced accordingly. The reaction was carried out at ambient temperature, the incubation period was 60 minutes. Then the fluorescence was measured in a Victor 1420 Multilabel Counter, with the excitation wavelength at 405 nm and the emission wavelength at 535 nm.

Dipeptidyl peptidase 4, sequence (P27487 whole entry): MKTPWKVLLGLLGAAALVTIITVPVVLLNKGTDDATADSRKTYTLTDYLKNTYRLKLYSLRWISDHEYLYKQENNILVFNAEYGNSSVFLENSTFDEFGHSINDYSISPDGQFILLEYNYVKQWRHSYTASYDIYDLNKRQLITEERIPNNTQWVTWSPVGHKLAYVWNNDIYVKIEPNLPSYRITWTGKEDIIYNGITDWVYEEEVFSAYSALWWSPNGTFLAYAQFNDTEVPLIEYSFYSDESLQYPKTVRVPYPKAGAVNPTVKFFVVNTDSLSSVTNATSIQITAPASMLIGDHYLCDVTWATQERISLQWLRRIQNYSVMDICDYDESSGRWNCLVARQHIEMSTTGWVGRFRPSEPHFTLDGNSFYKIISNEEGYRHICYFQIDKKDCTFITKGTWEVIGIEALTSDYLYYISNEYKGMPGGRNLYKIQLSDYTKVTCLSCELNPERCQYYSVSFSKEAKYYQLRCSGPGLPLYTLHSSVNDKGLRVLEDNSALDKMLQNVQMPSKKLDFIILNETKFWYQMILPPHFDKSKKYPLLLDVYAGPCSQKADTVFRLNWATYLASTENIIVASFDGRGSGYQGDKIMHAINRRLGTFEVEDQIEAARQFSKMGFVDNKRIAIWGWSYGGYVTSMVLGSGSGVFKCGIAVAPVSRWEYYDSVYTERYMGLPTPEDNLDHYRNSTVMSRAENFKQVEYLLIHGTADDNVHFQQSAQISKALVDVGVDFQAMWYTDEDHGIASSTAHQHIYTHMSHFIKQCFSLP

Structure (SMILES)	pIC50
CC#CCn1c(N2CCCC(NC(=O)OC(C)(C)C)C2)nc2c1c(=O)n(Cc1nc(NCc3ccccc3)c3ccccc3n1)c(=O)n2C (stereo not given)	8.22
CC#CCn1c(N2CCC[C@@H](NC(=O)OC(C)(C)C)C2)nc2c1c(=O)n(CC(=O)c1cccc(OC3CC3)c1)c(=O)n2C	8.30
CC#CCn1c(N2CCC[C@@H](NC(=O)OC(C)(C)C)C2)nc2c1c(=O)n(Cc1ccc3nc(C)c(C)nc3c1)c(=O)n2C	8.70
CC#CCn1c(N2CCC[C@@H](NC(=O)OC(C)(C)C)C2)nc2c1c(=O)n(CC(=O)c1ccccc1Br)c(=O)n2C	8.70
CC#CCn1c(N2CCC[C@@H](NC(=O)OC(C)(C)C)C2)nc2c1c(=O)n(Cc1nccc(-c3ccccc3)n1)c(=O)n2C	8.70
CC#CCn1c(N2CCC[C@@H](NC(=O)OC(C)(C)C)C2)nc2c1c(=O)n(CC(=O)c1ccccc1[N+](=O)[O-])c(=O)n2C	8.52

Further lines, results first:

pIC50	Structure (SMILES)
8.22	CC#CCn1c(N2CCC[C@@H](NC(=O)OC(C)(C)C)C2)nc2c1c(=O)n(Cc1cc(C#N)cc3ccccc13)c(=O)n2C
8.05	CC#CCn1c(N2CCC[C@@H](NC(=O)OC(C)(C)C)C2)nc2c1c(=O)n(Cc1nc(-c3ccccc3)nc3ccccc13)c(=O)n2C
8.70	CC#CCn1c(N2CCC[C@@H](NC(=O)OC(C)(C)C)C2)nc2c1c(=O)n(Cc1cc(C#N)c3ccccc3n1)c(=O)n2C
8.70	CC#CCn1c(N2CCC[C@@H](NC(=O)OC(C)(C)C)C2)nc2c1c(=O)n(Cc1nc3ccccc3c(C)c1C#N)c(=O)n2C
